Data as given in patent US4000259A, “Cyclic dodecapeptide analogs of somatostatin and intermediates” (American Home Products Corporation, priority 1975, dated 1976).

Assays:
glucagon = conditions: rats, nembutal 50 mg/kg i.p., compound subcutaneously 3100 μg/kg, blood 15 minutes after injection; control 10.5 ± 2
Experimental: (§1) The effect on glucagon, growth hormone and insulin levels of the compound of Example 7 was determined by injecting rats weighing about 200-240 g first with nembutal intraperitoneally at a dose of 50 mg/kg then after 5 minutes injecting the rats subcutaneously with a solution of the compound of Example 7 in saline at a dose of 3.1 mg/kg per rat. Blood samples are taken 15 minutes after injection with the compound of Example 7. The glucagon, growth hormone and insulin levels were determined by radioimmunoassay.

insulin = assay: In vivo effect on insulin levels in nembutal-treated rats, radioimmunoassay; conditions: nembutal 50 mg/kg i.p., compound subcutaneously 3100 μg/kg, blood 15 minutes after injection, control 171 ± 4
Experimental: as §1

growth hormone = assay: In vivo effect on growth hormone levels in nembutal-treated rats, radioimmunoassay; conditions: nembutal 50 mg/kg i.p., compound subcutaneously 3100 μg/kg, blood 15 minutes after injection, control 296 ± 25
Experimental: as §1

## L-Lysyl-L-lysyl-L-asparaginyl-L-phenylalanyl-L-phenylalanyl-L-tryptophyl-L-lysyl-L-threonyl-L-phenylalanyl-L-threonyl-L-seryl-L-aspartic acid cyclic (12β→1ε)-peptide, triacetate [Example 7]
glucagon
  Glucagon: 3.3 pg/mL
insulin
  Insulin: 182 ± 16 μU/ml
Growth hormone
  GH: 227 ± 32 ng/kg
